From BindingDB's records for PubMed 1857334 (National Institute of Mental Health, 1991) come the findings set out here.

The target in the assay is T1, Adenosine receptor A1 (Rattus norvegicus, UniProt P25099).
T1 sequence (P25099 whole entry): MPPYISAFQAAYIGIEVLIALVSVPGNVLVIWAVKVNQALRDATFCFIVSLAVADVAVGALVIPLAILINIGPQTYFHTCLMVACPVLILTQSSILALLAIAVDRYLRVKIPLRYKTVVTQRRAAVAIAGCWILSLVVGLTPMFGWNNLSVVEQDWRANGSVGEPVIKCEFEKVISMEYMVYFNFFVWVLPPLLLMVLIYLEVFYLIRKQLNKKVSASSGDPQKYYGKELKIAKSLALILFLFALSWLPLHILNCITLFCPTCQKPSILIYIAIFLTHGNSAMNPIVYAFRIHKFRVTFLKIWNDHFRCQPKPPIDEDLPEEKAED

The compound `CCCn1c(=O)c2[nH]c(-c3ccc(OCC(=O)NCCN)cc3)nc2n(CCC)c1=O` [N-(2-Amino-ethyl)-2-[4-(2,6-dioxo-1,3-dipropyl-2,3,6,9-tetrahydro-1H-purin-8-yl)-phenoxy]-acetamide] had a Ki of 2 nM.
